Assay results taken from paper PMC5748754, “Elucidating the Skin Delivery of Aglycone and Glycoside Flavonoids: How the Structures Affect Cutaneous Absorption” (Nutrients, 2017).
In brackets after ≈: the same amount, converted by molar mass. Several values for one entry are separate records, joined by “and”; a condition that tells them apart may be missing. Equal values may be shown once. Entries after “also recorded” stand apart in the source; their conditions may differ.

How the values were obtained:
[1] = tested on: fMLF-activated human neutrophils (elastase release); experiment: Elastase release inhibition in fMLF-activated human neutrophils; assay type: cell-based; details: flavonoids at 3 µM, fMLF/cytochalasin B-activated human neutrophils; for inhibition at 3 µM: Neutrophil
From the text: (§1) The protocol was approved by the Institutional Review Board at Chang Gung Memorial Hospital, and written informed consent was obtained from all volunteers (201600500B0C101). Whole blood was withdrawn from healthy volunteers between 20 and 30 years of age. Human neutrophils were isolated using a typical method of dextran sedimentation prior to centrifugation in a Ficoll-Hypaque gradient and hypotonic lysis of erythrocytes. The granulocyte layer was harvested and suspended in calcium-free HBSS at pH 7.4, which was maintained at 4 °C until use.
(§2) The reduction of ferricytochrome c was utilized for measuring the superoxide anion (O2^•–) release from the neutrophils. The human neutrophils (6 × 10^5 cells/mL) were incubated with 0.5 mg/mL ferricytochrome c and 1 mM CaCl2 at 37 °C, and were then treated with flavonoids (3 µM) in DMSO for 10 min. Neutrophils were stimulated by adding 0.1 µM fMLF with cytochalasin B (1 µg/mL). The reduction of ferricytochrome c was monitored by the absorbance at 550 nm using a U3010 ultraviolet/visible spectrophotometer (Hitachi, Tokyo, Japan). The human neutrophils were equilibrated with an elastase substrate (MeO-Suc-Ala-Ala-Pro-Val-p-nitroanilide, 100 µM) at 37 °C for 2 min. Flavonoids at a concentration of 3 µM were added into the neutrophil suspension for 10 min. The cells were activated by fMLF and cytochalasin B for a further 10 min. Elastase release was detected by measuring the change of absorbance at 405 nm.

[2] = tested on: fMLF-activated human neutrophils (O2•– release); experiment: Superoxide anion (O2•–) inhibition in fMLF-activated human neutrophils; assay type: cell-based; details: flavonoids at 3 µM, fMLF/cytochalasin B-activated human neutrophils; for inhibition at 3 µM: Homo sapiens, Neutrophil
From the text: as §1, §2

[3] = In vitro Franz cell skin absorption, nude mouse skin; assay type: in vitro ADME; details: for S value (skin deposition/flux) / flux / selectivity ratio at 24 h, 6 mM: dose 6 mM; for S value (skin deposition/flux) / flux / S value (CSD/PC): the sentence does not separate nude mouse and pig skin; for skin deposition / selectivity ratio at 24 h, 6 mM: nude mouse skin; for skin deposition: equivalent dose 6 mM, 24 h; for selectivity ratio at 24 h, 6 mM: read-out: S value (dermal/transdermal selectivity index, skin deposition/flux)
Description: (§3) The cutaneous absorption of flavonoids was assessed using a Franz diffusion cell system. The excised animal skin or cellulose membrane was mounted between the donor and receptor compartments with the SC facing up toward the donor. The receptor was filled with 30% ethanol/pH 7.4 buffer and placed on a magnetic stirring plate. The effective permeation area of the cell was 0.785 cm^2. The stirring rate and temperature of the receptor were 600 rpm and 37 °C, respectively. Saturated solution or a 6 mM flavonoid suspension was prepared in 20% PEG400/pH 7.4 buffer to be loaded into the donor compartment. A 300-µL aliquot in the receptor was collected at determined durations, followed by an immediate replacement with fresh receptor medium. The amount of flavonoid in the receptor was determined by HPLC. The skin was removed from the cell after a 24-h application. After being washed with water, the skin sample was weighed and positioned in a vial with 1 mL methanol. MagNA Lyser (Roche) was used to homogenize the skin. The homogenate was centrifuged at 10,000× g for 10 min. The supernatant was analyzed by HPLC to quantify the flavonoid deposition in the skin reservoir.
In the cutaneous absorption experiment, flavonoid deposition in the skin was estimated as the molar amount per mg of skin (nM/mg). In the case of the skin deposition from the saturated solution, the calibrated skin deposition (CSD) was measured as flavonoid deposition divided by the applied dose (saturated solubility). The flux (nM/cm^2/h) was estimated by the slope of the penetrated amount–time curve. The permeability coefficient (PC) was calculated from the flux divided by the saturated solubility of the flavonoids. The dermal/transdermal selectivity index (S value) was calculated using an equation of skin deposition/flux (for equivalent dose application) or CSD/PC (for saturated dose application).

[4] = Saturated solubility in 20% PEG400/pH 7.4 buffer; assay type: physicochemical; details: for solubility at 2 h: aqueous with cosolvent or surfactant or cyclodextrin, thermodynamic from solid, 20% PEG400/pH 7.4 buffer, 37 °C
Description: The suspension was then centrifuged at 10,000× g for 10 min. The supernatant was filtered across the polyvinylidene fluoride membrane with a pore size of 0.45 µm. The resulting supernatant was analyzed by HPLC to record the solubility (mM).

[5] = Franz cell skin deposition in SC-disrupted nude mouse skin; assay type: in vitro ADME; details: 6 mM; for Skin deposition, fold versus intact skin (SC-stripping) / skin deposition after the SC's removal: SC-stripped nude mouse skin
Description: The full-thickness dorsal skin of the nude mouse was excised after sacrifice. The SC-stripped skin was obtained by stripping the skin surface 20 times with adhesive tape (Scotch®, 3M, Maplewood, MN, USA). The delipidized skin was achieved by incubating the skin surface onto a chloroform/methanol solution (2:1) for 2 h. To prepare the desebumed skin, the SC side of the skin was washed with cold hexane (4 °C) five times, based on the procedure of the previous study. The skin’s surface was then treated with a 40% ethanol/water solution for 2 h, a process that successfully denatured the skin’s proteins.
as §3

[6] = In vivo cutaneous tolerance (TEWL, histology) on nude mouse back; details: 6 mM topically daily for 7 days; for histology: SC layers: H&E, versus vehicle control; for ΔTEWL (treated skin minus aqueous vehicle control): nude mouse back
Description: The 20% PEG400/pH 7.4 buffer loaded with flavonoids at 6 mM was topically applied daily (0.6 mL) on the nude mouse back for 7 days. The flavonoid-containing vehicle was replaced with a new one each day. After removal of the vehicle, the treated skin region was evaluated by Tewameter TM300 (Courage and Khazaka, Köln, Germany) to determine the transepidermal water loss (TEWL). Stained by hematoxylin and eosin (H&E), the treated skin was excised for histological examination after a 7-day flavonoid application.

[7] = Partition coefficient (log P), n-octanol/water; assay type: physicochemical; details: 37 °C
Description: Flavonoids in methanol (0.5 mg/mL) were pipetted into a tube at a volume of 1 mL. Methanol was then evaporated under vacuum. In the amount of 1 mL of each, n-Octanol and water were incorporated into the tube. After being shaken for 24 h at 37 °C, the tube was centrifugated at 10,000× g for 10 min. The flavonoid content in both phases was analyzed by HPLC. The log P was calculated as log (flavonoid content in n-octanol/flavonoid content in water).

[8] = Capacity factor (log K') by HPLC; assay type: physicochemical; details: HPLC C18, methanol/pH 2 phosphate buffer 1:1
Description: The HPLC setup for the calculation of log K’ was an HPLC system (7-series, Hitachi, Tokyo, Japan) with a LiChrospher® C18 column (200 × 4.6 mm, Merck, Darmstadt, Germany). The mobile phase consisted of a mixture of methanol and pH 2 phosphate buffer solution (1:1). The flow rate and wavelength for determination were 1 mL/min (L-7110 pump) and 256 nm (L-7455 diode array detector), respectively. The retention times of flavonoids were detected, and the log K’ was computed as log [(tr − t0)/t0], where tr and t0 were the retention time of the flavonoid and the nonretained solvent peak, respectively.

[9] = In vitro Franz cell skin absorption, pig skin; assay type: in vitro ADME; details: read-out: S value (dermal/transdermal selectivity index, skin deposition/flux)
Description: as §3, with “After being washed with water, the skin sample was weighed and positioned in a vial with 1 mL methanol. MagNA Lyser (Roche) was used to homogenize the skin. The homogenate was centrifuged at 10,000× g for 10 min.” left out
In the cutaneous absorption experiment, flavonoid deposition in the skin was estimated as the molar amount per mg of skin (nM/mg). In the case of the skin deposition from the saturated solution, the calibrated skin deposition (CSD) was measured as flavonoid deposition divided by the applied dose (saturated solubility). […] The permeability coefficient (PC) was calculated from the flux divided by the saturated solubility of the flavonoids. […]

[10] = saturated solubility dose, skin type not separated

Naringin
Elastase Inhibition [1]: 13.89 ± 9.67%
O2^•– Inhibition [2]: 21.51 ± 2.53%

Kaempferol
Elastase Inhibition [1]: 18.11 ± 9.01%
O2^•– Inhibition [2]: 26.49 ± 8.41%

O=c1c(O)c(-c2ccc(O)c(O)c2)oc2cc(O)cc(O)c12 [Quercetin]
S value (skin deposition/flux) [3]: ∞
flux [3]: near zero
permeability coefficient (PC) [3, 10]: neglected
S value (CSD/PC) ([3]; saturated solubility dose): infinity
solubility at 2 h [4]: 380 ± 2.5 µM (≈ 115 µg/mL)
Skin deposition, fold versus intact skin (SC-stripping) [5]: > 30 x
skin deposition after the SC's removal [5]: 1.2 nM/mg
Skin deposition, fold versus intact skin (Protein removal) ([5]; deproteinized nude mouse skin): failed to change

Quercetin
Elastase Inhibition ([1]; 3 µM): 29% and 28.67 ± 8.51%
O2^•– Inhibition [2]: 26.44 ± 8.07%

C[C@@H]1O[C@@H](O[C@H]2[C@H](Oc3cc(O)c4c(c3)O[C@H](c3ccc(O)cc3)CC4=O)O[C@H](CO)[C@@H](O)[C@@H]2O)[C@H](O)[C@H](O)[C@H]1O [Naringin]
solubility at 2 h [4]: > 20000 µM
histology: SC layers [6]: SC layers could be recovered

O=C1C[C@@H](c2ccc(O)cc2)Oc2cc(O)cc(O)c21 [Naringenin]
skin deposition [3]: 0.37 nM/mg
fold more soluble than baicalein ([4]; PEG400/pH 7.4 buffer solution): 470 fold
solubility at 2 h [4]: 3620 ± 280 µM (≈ 986 µg/mL)
histology: SC layers [6]: SC layers could be recovered
ΔTEWL (treated skin minus aqueous vehicle control) [6]: reduced TEWL as compared to the vehicle control
ΔTEWL (treated skin minus aqueous vehicle control) ([6]; listed as naringenin): alleviated ΔTEWL

O=c1c(O)c(-c2cc(O)c(O)c(O)c2)oc2cc(O)cc(O)c12 [Myricetin]
S value (skin deposition/flux) [3]: ∞
flux [3]: near zero
permeability coefficient (PC) [3, 10]: neglected
S value (CSD/PC) ([3]; saturated solubility dose): infinity
inhibition at 3 µM [1]: 16.8 ± 4.76%
inhibition at 3 µM [2]: 42.1 ± 6.22%
logP at 24 h [7]: 3.18 ± 0.07
log K’ [8]: 0.34
solubility at 2 h [4]: 530 ± 10 µM (≈ 169 µg/mL)
Skin deposition, fold versus intact skin (SC-stripping) [5]: > 30 x
skin deposition after the SC's removal [5]: 0.4 nM/mg

O=c1cc(-c2ccccc2)oc2cc(O)c(O)c(O)c12 [Baicalein]
calibrated skin deposition (CSD) [3, 10]: below the quantification limit
S value (CSD/PC) ([3]; saturated solubility dose): 0
inhibition at 3 µM [1]: 12.2 ± 2.15%
inhibition at 3 µM [2]: 77%
O2^•– Inhibition ([2]; 3 µM): 77.48 ± 5.27%
logP at 24 h [7]: 3.59 ± 0.08
log K’ [8]: 0.73
solubility at 2 h [4]: 7.7 ± 1.9 µM (≈ 2.08 µg/mL)
skin deposition after the SC's removal [5]: 0.2 nM/mg

C[C@@H]1O[C@@H](OC[C@H]2O[C@@H](Oc3c(-c4ccc(O)c(O)c4)oc4cc(O)cc(O)c4c3=O)[C@H](O)[C@@H](O)[C@@H]2O)[C@H](O)[C@H](O)[C@H]1O [Rutin]
selectivity ratio at 24 h, 6 mM [3]: 1.3
inhibition at 3 µM [1]: 13.2 ± 3.39%
inhibition at 3 µM [2]: 33.9 ± 8.67%
selectivity ratio at 24 h, 6 mM [9]: 0.4
log K’ [8]: 0.24
solubility at 2 h [4]: 1840 ± 40 µM (≈ 1120 µg/mL)

O=C(O)[C@H]1O[C@@H](Oc2cc3oc(-c4ccccc4)cc(=O)c3c(O)c2O)[C@H](O)[C@@H](O)[C@@H]1O [Baicalin]
inhibition at 3 µM [1]: 0%
Elastase Inhibition [1]: did not change
inhibition at 3 µM [2]: 77%
O2^•– Inhibition ([2]; 3 µM): 75.73 ± 6.21%
O2^•– Inhibition ([2]; listed as baicalin, 3 µM): 76%
logP at 24 h [7]: 0.89 ± 0.02
log K’ [8]: 0.42
solubility at 2 h [4]: 5320 ± 150 µM (≈ 2370 µg/mL)

Naringenin
Elastase Inhibition [1]: 17.97 ± 6.62%
O2^•– Inhibition ([2]; 3 µM): 19.72 ± 8.23%
O2^•– Inhibition ([2]; listed as naringenin, 3 µM): 20%

O=c1c(O)c(-c2ccc(O)cc2)oc2cc(O)cc(O)c12 [Kaempferol]
selectivity ratio at 24 h, 6 mM [3]: 2.7
skin deposition [3]: 0.11 nM/mg
permeability coefficient (PC) [3, 10]: neglected
S value (CSD/PC) ([3]; saturated solubility dose): infinity
selectivity ratio at 24 h, 6 mM [9]: 1.5
solubility at 2 h [4]: 190 ± 4.7 µM (≈ 54.4 µg/mL)
histology: SC layers [6]: SC layers could be recovered
ΔTEWL (treated skin minus aqueous vehicle control) [6]: reduced TEWL as compared to the vehicle control; also recorded: alleviated ΔTEWL
